{"source": "patent US11826355B1", "about": "“Aspirin-mimetic antioxidants for treatment of age-related cataract” (priority 2022, dated 2023)", "key": {"lung cancer": {"tested_on": "lung cancer", "details": "1994 ATBC RCT; cited from earlier work"}, "[1]": {"tested_on": "acute ischemia stroke (AIS) and/or ALS", "details": "approved for acute ischemia stroke (AIS) and/or ALS; cited from earlier work"}, "[2]": {"tested_on": "Wistar rat cataract model induced by sodium selenite", "test": "Lens opacity score (slit lamp) in sodium selenite-induced cataract rat model", "type": "in vivo", "parameters": "lens opacity score, Mean / lens opacity score / lens opacity score, raw data per eye (OD/OS, rats 1-6): scale not given here", "details": "G1, 0.8 mg/15 mL, 10 μl 3 times/day", "method": "A new batch of eye drops solutions was prepared every week. Placebo was a solution that contained the same excipients but without the drug compound. The eye drops solutions were prepared as follows:\n3. An illustrative procedure: To a 250 mL volume flask were added 25 mg each of the excipients, sodium borate, boric acid, sodium chloride, and potassium chloride, an aspirin mimetic drug compound to be tested (e.g., DPL-004, 9.0 mg), and about 200 ml of sterilized water to form a mixture. The resultant mixture was shaken well to dissolve solids; and more sterilized water was added to bring the volume of solution to 250 mL, which was shaken well and then distributed into small portions. Each portion was labeled with a concentration of 3.6 mg/100 mL and the preparation date and was stored in a refrigerator for future use.\n4. Eye drops solutions comprising DPL-004 at a concentration of 36 mg/100 mL and 12 mg/100 mL were prepared similarly according to the above procedure by using 90 mg and 30 mg of DPL-004, respectively, while maintaining the same amounts of excipients as shown above.\n(§1) At the age of 11-12 days after birth, all suckling rats underwent a single intraperitoneal injection of sodium selenite (30 μmol/kg, i.e., 0.1 ml/10 g) for model-building. Sodium selenite solution was configured with normal saline at a concentration of 3 mM.\n(§2) At the age of 19 days after birth (D-1) of the suckling rats, 30 lens opacities were selected for a cloudy rating at Class 4 or 5; Wister suckling rats were randomly divided into 5 groups (G1-G5 groups, 6 in each group); and a cage of suckling rats as G6 was randomly selected after the animals opened their eyes (14-16 days of age).\n(§3) The subject suckling rats of groups G1 to G5 were treated at the age of 20 days after birth (D1), and the specific dosing information is shown in Table 1. Treatment in the G6 group was conducted after the animals opened their eyes (14-16 days old, D-6-D-4), and the specific dosing information is shown in Table 1.\nAt D-1, in the fourth week of treatment, the slit lamp was used at the end of administration to observe the turbidity of the lens and grade it, and the grading and scoring criteria are shown in the following Table 2."}, "[3]": {"test": "Body weight of rats in the cataract model study", "type": "in vivo, rat", "details": "G1, 0.8 mg/15 mL, 10 μl 3 times/day", "method": "as §1, §2, §3"}, "[4]": {"test": "General clinical observations during 60-day eye drop administration", "type": "in vivo, rat", "details": "eye drops 3 times/day, 60-day administration phase, all concentrations", "description": "as §2"}, "prostate cancer": {"tested_on": "prostate cancer", "details": "2008 SELECT RCT; cited from earlier work"}, "[5]": {"details": "pH about 6.4, day -1 (before administration)"}}, "note": "Several values for one entry are separate records, joined by “and”; a condition that tells them apart may be missing. Identical values can stand only once.", "data": [{"smiles": "CC1=C(/C=C/C(C)=C/C=C/C(C)=C/C=C/C=C(C)/C=C/C=C(C)/C=C/C2=C(C)CCCC2(C)C)C(C)(C)CCC1", "note": "[Beta-carotene only, Beta-carotene]", "values": [{"measurement": "Adverse Effects: more lung cancer", "setting": "lung cancer", "value": 18, "unit": "% more lung"}]}, {"smiles": "CC1=NN(c2ccccc2)C(=O)C1", "note": "[Edaravone]", "values": [{"measurement": "efficacy (marginal)", "setting": "[1]", "value": 5, "unit": "%"}]}, {"smiles": "O=C(O)c1cc(O)c2c3nc4ccccc4oc-3cc(=O)c2n1", "note": "[Pirenoxine, reference compound]", "values": [{"measurement": "lens opacity score, Mean", "setting": "[2]; pH about 6.4, day 28", "value": 3.42}, {"measurement": "lens opacity score, raw data per eye (OD/OS, rats 1-6)", "setting": "[2]; pH about 6.4, day 28", "value": "3 and 4"}, {"measurement": "lens opacity score, Mean", "setting": "[2]; pH about 6.4, day 60", "value": 2.92}, {"measurement": "lens opacity score, raw data per eye (OD/OS, rats 1-6)", "setting": "[2]; pH about 6.4, day 60", "value": "2 and 4 and 3"}, {"measurement": "lens opacity score, Mean", "setting": "[2]; [5]", "value": 4.00}, {"measurement": "lens opacity score, raw data per eye (OD/OS, rats 1-6)", "setting": "[2]; [5]", "value": 4}, {"measurement": "Body Weight, Mean", "setting": "[3]; pH about 6.4, day 4", "value": 57.07, "unit": "g"}, {"measurement": "Body Weight, Mean", "setting": "[3]; pH about 6.4, day 11", "value": 96.02, "unit": "g"}, {"measurement": "Body Weight, Mean", "setting": "[3]; pH about 6.4, day 18", "value": 133.87, "unit": "g"}, {"measurement": "Body Weight, Mean", "setting": "[3]; pH about 6.4, day 25", "value": 163.00, "unit": "g"}, {"measurement": "Body Weight, Mean", "setting": "[3]; pH about 6.4, day 32", "value": 197.18, "unit": "g"}, {"measurement": "Body Weight, Mean", "setting": "[3]; pH about 6.4, day 39", "value": 219.45, "unit": "g"}, {"measurement": "Body Weight, Mean", "setting": "[3]; pH about 6.4, day 46", "value": 239.75, "unit": "g"}, {"measurement": "Body Weight, Mean", "setting": "[3]; pH about 6.4, day 53", "value": 255.82, "unit": "g"}, {"measurement": "Body Weight, Mean", "setting": "[3]; pH about 6.4, day 60", "value": 270.00, "unit": "g"}, {"measurement": "Body Weight, Mean", "setting": "[3]; [5]", "value": 43.48, "unit": "g"}, {"measurement": "abnormal symptoms (activity status, body weight, skin hair, secretion morphology and color)", "setting": "[4]", "value": "no abnormal symptoms"}]}, {"smiles": "Cc1c(C)c2c(c(C)c1O)CC[C@@](C)(CCC[C@H](C)CCC[C@H](C)CCCC(C)C)O2", "note": "[Vitamin E]", "values": [{"measurement": "Adverse Effects: more prostate cancer", "setting": "prostate cancer", "value": 17, "unit": "% more prostate"}]}]}
